Laboratory results published in US20260325520A1, “METHODS FOR TREATING OR PREVENTING NEUROENDOCRINE TUMR FORMATION USING CDC7 INHIBITORS” (Memorial Sloan-Kettering Cancer Center, priority 2022, published 2026).

Experiments:
[1] = tested on: MYC; assay: Western blot of MYC in tumors collected at intermediate time point; type: in vivo, mice; conditions: western blot (FIG. 6B)
Source text: (§1) FIG. 6A: Pathway enrichment analyses on differentially expressed genes between the combo-and enzalutamide-treated tumors, collected at an intermediate time point in the for TP53/RB1-inactivated LnCap and 22PC experiments shown in FIG. 5. […] FIG. 6C: MYC mRNA levels in the tumors collected at endpoint in the prostate transformation models treated in FIG. 5A. FIG. 6D: Barplot showing proteasome activity in control and CDC7-inhibited (either pharmacologically by simurosertib, or genetically by CDC7 CRISPR KO) prostate transformation models. FIG. 6E: Western blots showing neuroendocrine marker expression in prostate models of transformation, when treated with enzalutamide, simurosertib or their combination. Specifically, for each treatment condition, isogenic control and MYC^T58A-expressing cells were analyzed.
Protein extraction and western blot were performed as previously described^21. Antibodies for CDC7 (#3603, Cell Signaling Technology), MYC (#5605, Cell Signaling Technology), synaptophysin (#36406, Cell Signaling Technology), CD56 (#99746, Cell Signaling Technology), AR (#5153, Cell Signaling Technology vinculin (#13901, Cell Signaling Technology), tubulin (#3873, Cell Signaling Technology) and actin (#3700, Cell Signaling Technology). Quantifications were performed with the Image Studio software (Version 3.1, Li-Cor). Immunohistochemistry for CDC7 was performed with the CDC7 antibody #MA5-12589 from Invitrogen in TMAs including resected tumor samples form SCLC and NSCLC patients. All study subjects had provided signed informed consent for biospecimen analyses under an Institutional Review Board-approved protocol.

[2] = tested on: Proteasome 20S; assay: Proteasome activity assay; type: cell-based; conditions: prostate transformation models (FIG. 6D)
Source text: as §1
Proteasome activity was measured with the Proteasome 20S Activity Assay Kit (#MAK172, Sigma), following the manufacturer's instructions.

[3] = tested on: SCLC cell lines; assay: Growth inhibition of SCLC cell lines by CDC7 inhibitors, correlation with CDC7 mRNA and protein expression; type: cell-based; conditions: array of SCLC cell lines, Spearman's test
Source text: FIG. 1A: CDC7 mRNA expression in cell lines derived from different tumor types. The data was obtained from CCLE through UCSC Xenabrowser portal (https://xenabrowser.net/) in December 2020. Lines indicate the median CDC7 mRNA expression in SCLC cell lines. FIG. 1B: CDC7 protein expression assessed by IHC in NSCLC (N=58) and SCLC (N=45) clinical samples. Protein expression is shown as IHC score. H-score medians and standard deviation are shown. FIG. 1C: Western blot showing CDC7 KO in H82 (SCLC-N) and H146 (SCLC-A) SCLC cell lines. Proliferation (FIG. 1D) and soft agar colony formation (FIG. 1E) assays in isogenic H82 and H146 cell lines with CDC7 KO. In FIG. 1D, lower line graphs correspond to CDC7 KO (sgCDC7). FIG. 1F: Ectopic overexpression of CDC7 in H69 (SCLC-A) and DMS114 (SCLC-Y) SCLC cell lines. Proliferation (FIG. 1G) and soft agar colony formation (FIG. 1H) assays in isogenic H69 and DMS114 cell lines with ectopic CDC7 overexpression. […] FIG. 1I: Bivariate correlation of CDC7 mRNA and protein expression with simurosertib or LY3143921 sensitivity (assessed as growth inhibition) in an array of SCLC cell lines. Correlation was calculated with Spearman's test. […]
Cytotoxic assays were performed as described in ^19. […] Viability was assessed with the CellTiter-Glo 2.0 Assay (Promega, G9242) as indicated by manufacturer. […]

What does the source list for `Cc1n[nH]cc1-c1cc2nc([C@@H]3CC4CCN3CC4)[nH]c(=O)c2s1` [simurosertib]?
MYC protein expression [1]: MYC downregulation; proteasome activity [2]: induced proteasome activity; sensitivity correlation with CDC7 mRNA and protein expression [3]: correlated with CDC7 mRNA and protein expression
